Source: patent publication US20260297085A1, “1 H-PYRROLO[2,3-B]PYRIDIN-4-YL]-2-OXOPYRROLIDINE-3-CARBONITRILE DERIVATIVES AS TYROSINE KINASE 2 (TYK2) INHIBITORS FOR THE TREATMENT OF INFLAMMATORY DISEASES” (BIOGEN MA INC., priority 2023, published 2026)

Assays:
[1] = target: Tyk2 kinase activity on STAT4 in NK92 cells (Homo sapiens, UniProt P29597); assay: pSTAT4 cell assay (MSD; NK92 cells, 30 ng/mL IL2 stimulation); type: cell-based; conditions: 30 ng/mL IL2, 15 minutes
Outline: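 Compound treatment of starved NK92 cells ran 1 hr before a 15-minute, 30 ng/mL IL2 pulse; lysates went to an MSD anti-STAT4 antibody assay, with curves fitted by 4-parameter logistic model.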

[2] = target: T1, human JAK2 kinase domain (JH1) (Homo sapiens, UniProt O60674); assay: JH1 biochemical assay for JAK2 (ADP-Glo kinase assay, recombinant JH1 catalytic domain, JAK3-974 peptide, 15 μM ATP); conditions: JH1 kinase domain, ADP-Glo
T1 construct: recombinantly generated catalytic kinase (also known as JH1) domain of human JAK1, JAK2, JAK3 and TYK2
T1 sequence (O60674 849-1124 limits assumed): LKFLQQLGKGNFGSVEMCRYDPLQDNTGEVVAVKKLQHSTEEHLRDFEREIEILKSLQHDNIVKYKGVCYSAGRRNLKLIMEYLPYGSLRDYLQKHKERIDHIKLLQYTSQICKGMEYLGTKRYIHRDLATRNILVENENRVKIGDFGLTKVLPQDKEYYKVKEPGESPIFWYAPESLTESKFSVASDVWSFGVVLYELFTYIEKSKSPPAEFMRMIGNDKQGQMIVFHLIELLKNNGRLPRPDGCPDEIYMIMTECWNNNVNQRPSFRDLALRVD
Outline: (§1)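 ADP-Glo luminescence with 50 μM peptide and 100 min reactions: JAK1 4 nM with JAK3-342 peptide; JAK2, JAK3 and TYK2 at 0.2, 0.3 and 2 nM with JAK3-974 peptide. Compounds tested from 10 or 1 μM top, 11 points, 3-fold. IC50 from a 4-parameter logistic fit of normalized activity.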

[3] = target: T2, human JAK3 kinase domain (JH1) (Homo sapiens, UniProt P52333); assay: JH1 biochemical assay for JAK3 (ADP-Glo kinase assay, recombinant JH1 catalytic domain, JAK3-974 peptide, 4 μM ATP); conditions: JH1 kinase domain, ADP-Glo
T2 construct: recombinantly generated catalytic kinase (also known as JH1) domain of human JAK1, JAK2, JAK3 and TYK2
T2 sequence (P52333 822-1111 limits assumed): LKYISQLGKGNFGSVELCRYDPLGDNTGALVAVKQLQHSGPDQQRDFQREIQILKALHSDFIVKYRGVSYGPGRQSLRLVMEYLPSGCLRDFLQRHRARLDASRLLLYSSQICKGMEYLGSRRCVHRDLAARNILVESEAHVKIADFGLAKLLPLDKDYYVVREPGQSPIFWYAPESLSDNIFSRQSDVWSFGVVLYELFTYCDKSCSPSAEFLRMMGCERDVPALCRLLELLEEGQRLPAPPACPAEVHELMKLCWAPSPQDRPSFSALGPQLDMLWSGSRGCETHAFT
Outline: as §1

[4] = target: T3, human TYK2 kinase domain (JH1) (Homo sapiens, UniProt P29597); assay: JH1 biochemical assay for TYK2 (ADP-Glo kinase assay, recombinant JH1 catalytic domain, JAK3-974 peptide, 10 μM ATP); conditions: JH1 kinase domain, ADP-Glo
T3 construct: recombinantly generated catalytic kinase (also known as JH1) domain of human JAK1, JAK2, JAK3 and TYK2
T3 sequence (P29597 897-1176 limits assumed): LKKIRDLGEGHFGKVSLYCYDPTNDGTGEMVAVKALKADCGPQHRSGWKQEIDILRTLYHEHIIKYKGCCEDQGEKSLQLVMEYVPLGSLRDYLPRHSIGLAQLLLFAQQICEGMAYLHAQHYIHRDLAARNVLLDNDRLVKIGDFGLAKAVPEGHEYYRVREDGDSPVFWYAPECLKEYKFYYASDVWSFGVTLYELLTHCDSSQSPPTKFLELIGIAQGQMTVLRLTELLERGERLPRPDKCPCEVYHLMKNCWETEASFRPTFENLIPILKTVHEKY
Outline: as §1

[5] = target: T4, human JAK1 kinase domain (JH1) (Homo sapiens, UniProt P23458); assay: JH1 biochemical assay for JAK1 (ADP-Glo kinase assay, recombinant JH1 catalytic domain, JAK3-342 peptide, 35 μM ATP); conditions: JH1 kinase domain, ADP-Glo
T4 construct: recombinantly generated catalytic kinase (also known as JH1) domain of human JAK1, JAK2, JAK3 and TYK2
T4 sequence (P23458 875-1153 limits assumed): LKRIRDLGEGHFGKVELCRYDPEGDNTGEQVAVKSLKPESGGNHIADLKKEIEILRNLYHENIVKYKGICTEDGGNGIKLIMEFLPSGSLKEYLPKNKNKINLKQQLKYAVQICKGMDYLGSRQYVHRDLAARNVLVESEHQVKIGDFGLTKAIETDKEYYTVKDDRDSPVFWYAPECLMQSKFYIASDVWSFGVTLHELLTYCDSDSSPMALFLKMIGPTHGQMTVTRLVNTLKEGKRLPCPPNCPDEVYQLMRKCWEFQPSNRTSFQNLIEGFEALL
Outline: as §1

[6] = target: JAK1 kinase activity on STAT3 in TF1 cells (Homo sapiens, UniProt P23458); assay: pSTAT3 cell assay (MSD; TF1 cells, 30 ng/mL IL-6 stimulation); type: cell-based; conditions: 30 ng/mL IL-6, 15 minutes
JAK1 kinase activity on STAT3 in TF1 cells, sequence (P23458 whole entry): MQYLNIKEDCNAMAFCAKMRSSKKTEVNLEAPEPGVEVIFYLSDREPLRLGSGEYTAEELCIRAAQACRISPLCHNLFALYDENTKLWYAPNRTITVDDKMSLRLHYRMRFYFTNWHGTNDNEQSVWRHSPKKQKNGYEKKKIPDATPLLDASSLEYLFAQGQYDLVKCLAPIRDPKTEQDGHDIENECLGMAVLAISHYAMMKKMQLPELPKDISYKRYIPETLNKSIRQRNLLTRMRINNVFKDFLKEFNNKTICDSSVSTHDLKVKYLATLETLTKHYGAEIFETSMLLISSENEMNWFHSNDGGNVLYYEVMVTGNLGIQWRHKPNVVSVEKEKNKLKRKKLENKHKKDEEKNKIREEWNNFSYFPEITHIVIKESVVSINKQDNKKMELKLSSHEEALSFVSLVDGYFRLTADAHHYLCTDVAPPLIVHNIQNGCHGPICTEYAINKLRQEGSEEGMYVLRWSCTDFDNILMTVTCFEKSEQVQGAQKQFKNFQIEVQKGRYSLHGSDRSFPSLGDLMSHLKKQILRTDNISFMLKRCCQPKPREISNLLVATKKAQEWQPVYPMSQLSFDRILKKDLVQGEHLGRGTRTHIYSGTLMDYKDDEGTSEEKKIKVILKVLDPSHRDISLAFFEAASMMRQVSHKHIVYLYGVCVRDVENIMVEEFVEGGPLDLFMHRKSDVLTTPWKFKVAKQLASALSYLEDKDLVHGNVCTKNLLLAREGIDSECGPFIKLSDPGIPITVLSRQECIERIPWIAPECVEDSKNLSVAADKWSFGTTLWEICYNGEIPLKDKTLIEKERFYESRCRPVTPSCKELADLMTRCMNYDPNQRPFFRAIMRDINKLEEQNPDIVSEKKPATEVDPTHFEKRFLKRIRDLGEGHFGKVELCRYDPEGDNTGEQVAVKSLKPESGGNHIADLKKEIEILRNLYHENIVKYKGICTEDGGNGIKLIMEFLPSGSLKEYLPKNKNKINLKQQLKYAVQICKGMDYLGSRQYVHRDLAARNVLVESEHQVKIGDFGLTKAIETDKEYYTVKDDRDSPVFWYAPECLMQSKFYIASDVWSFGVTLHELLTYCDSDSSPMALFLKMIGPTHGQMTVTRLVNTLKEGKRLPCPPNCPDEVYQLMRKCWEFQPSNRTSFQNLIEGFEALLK
Outline: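 IC50 values reflect 4-parameter logistic fits of normalized pSTAT3 signal, measured by MSD in lysed TF1 cells. Cells were serum-starved and treated with compound for 1 h (top concentration 10 μM) before a 15 min IL-6 challenge.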

[7] = target: JAK2 kinase activity on STAT5 in TF1 cells (Homo sapiens, UniProt O60674); assay: pSTAT5 cell assay (MSD; TF1 cells, 30 ng/mL IL-3 stimulation); type: cell-based; conditions: 30 ng/mL IL-3, 15 minutes
JAK2 kinase activity on STAT5 in TF1 cells, sequence (O60674 whole entry): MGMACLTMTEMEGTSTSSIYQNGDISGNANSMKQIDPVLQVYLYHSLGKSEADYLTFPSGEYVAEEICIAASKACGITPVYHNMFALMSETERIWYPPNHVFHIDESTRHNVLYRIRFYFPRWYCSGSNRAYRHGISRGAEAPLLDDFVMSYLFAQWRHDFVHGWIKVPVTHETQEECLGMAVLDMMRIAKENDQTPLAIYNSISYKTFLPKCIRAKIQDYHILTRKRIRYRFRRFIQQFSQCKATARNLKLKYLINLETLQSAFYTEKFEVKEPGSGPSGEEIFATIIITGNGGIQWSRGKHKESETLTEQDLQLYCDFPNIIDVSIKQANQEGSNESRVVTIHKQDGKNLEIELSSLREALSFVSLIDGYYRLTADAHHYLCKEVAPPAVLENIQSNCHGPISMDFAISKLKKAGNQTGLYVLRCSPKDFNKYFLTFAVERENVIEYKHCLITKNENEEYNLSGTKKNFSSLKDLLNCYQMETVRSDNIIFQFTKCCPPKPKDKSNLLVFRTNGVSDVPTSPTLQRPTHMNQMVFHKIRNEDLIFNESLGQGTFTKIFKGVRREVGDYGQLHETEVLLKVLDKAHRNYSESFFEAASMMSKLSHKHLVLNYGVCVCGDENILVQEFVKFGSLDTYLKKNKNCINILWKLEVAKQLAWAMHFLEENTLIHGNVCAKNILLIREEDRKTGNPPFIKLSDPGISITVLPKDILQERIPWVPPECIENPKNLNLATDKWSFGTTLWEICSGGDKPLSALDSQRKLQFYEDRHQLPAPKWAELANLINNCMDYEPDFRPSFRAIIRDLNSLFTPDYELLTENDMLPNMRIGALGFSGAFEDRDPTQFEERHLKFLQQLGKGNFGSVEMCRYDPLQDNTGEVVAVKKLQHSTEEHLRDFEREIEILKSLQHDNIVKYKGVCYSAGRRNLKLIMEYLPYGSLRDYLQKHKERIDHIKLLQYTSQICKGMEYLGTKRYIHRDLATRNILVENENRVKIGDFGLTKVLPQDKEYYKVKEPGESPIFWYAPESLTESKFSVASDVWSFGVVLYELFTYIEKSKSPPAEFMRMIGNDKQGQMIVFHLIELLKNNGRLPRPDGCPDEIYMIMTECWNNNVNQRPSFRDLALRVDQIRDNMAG
Outline: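 IC50 from a 4-parameter logistic fit of normalized pSTAT5 signal, measured by MSD in lysates of TF1 cells. Cells were serum-starved, exposed to compound for 1 h (top concentration 10 μM, four-fold, 10 points), then given IL-3 at 30 ng/mL for 15 min.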

Tyk2 kinase activity on STAT4 in NK92 cells, sequence (P29597 whole entry): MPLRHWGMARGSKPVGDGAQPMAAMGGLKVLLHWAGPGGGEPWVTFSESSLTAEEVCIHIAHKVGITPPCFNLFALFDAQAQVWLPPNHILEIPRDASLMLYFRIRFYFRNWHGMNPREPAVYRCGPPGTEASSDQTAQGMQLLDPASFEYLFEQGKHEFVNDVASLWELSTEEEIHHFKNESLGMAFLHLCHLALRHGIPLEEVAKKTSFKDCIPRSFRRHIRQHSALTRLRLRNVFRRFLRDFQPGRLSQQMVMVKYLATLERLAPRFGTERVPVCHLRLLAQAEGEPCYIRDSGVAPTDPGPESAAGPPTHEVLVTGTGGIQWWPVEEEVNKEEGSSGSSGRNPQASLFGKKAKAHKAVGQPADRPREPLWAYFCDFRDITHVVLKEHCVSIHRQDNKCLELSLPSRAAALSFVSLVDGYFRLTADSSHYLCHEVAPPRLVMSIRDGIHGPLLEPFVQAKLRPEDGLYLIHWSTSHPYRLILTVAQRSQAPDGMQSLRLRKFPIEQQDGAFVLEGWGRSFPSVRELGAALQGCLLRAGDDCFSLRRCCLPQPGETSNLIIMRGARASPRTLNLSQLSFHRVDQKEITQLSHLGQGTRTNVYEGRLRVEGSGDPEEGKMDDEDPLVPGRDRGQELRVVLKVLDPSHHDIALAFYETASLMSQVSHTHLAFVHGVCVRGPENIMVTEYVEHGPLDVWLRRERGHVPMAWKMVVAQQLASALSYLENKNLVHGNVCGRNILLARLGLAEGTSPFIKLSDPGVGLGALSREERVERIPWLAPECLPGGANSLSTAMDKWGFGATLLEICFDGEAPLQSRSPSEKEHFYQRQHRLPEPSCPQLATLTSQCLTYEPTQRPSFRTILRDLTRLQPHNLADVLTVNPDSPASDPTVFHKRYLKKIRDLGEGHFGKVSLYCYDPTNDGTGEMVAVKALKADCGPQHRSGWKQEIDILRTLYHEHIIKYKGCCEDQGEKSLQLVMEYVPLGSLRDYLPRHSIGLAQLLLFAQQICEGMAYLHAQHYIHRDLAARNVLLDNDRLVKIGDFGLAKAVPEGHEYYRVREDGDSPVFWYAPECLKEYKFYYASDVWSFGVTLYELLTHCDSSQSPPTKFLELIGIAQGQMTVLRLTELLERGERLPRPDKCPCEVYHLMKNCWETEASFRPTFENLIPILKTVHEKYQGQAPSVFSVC

IC50 [1] [nM] | IC50 [2] [nM] | IC50 [3] [nM] | IC50 [4] [nM] | IC50 [5] [nM] | IC50 [6] [nM] | IC50 [7] [nM] | Structure (SMILES)
> 100 | 1000 to 5000 | 1000 to 5000 | 50 to 100 | 1000 to 5000 | > 10000 | > 10000 | C[C@H]1CN(c2ccnn3cc(-c4cnn(C)c4)cc23)C(=O)[C@]1(C#N)C1CC1 [Example 22, (3R,4R)-3-cyclopropyl-4-methyl-1-(6-(1-methyl-1H-pyrazol-4-yl)pyrrolo[1,2-b]pyridazin-4-yl)-2-oxopyrrolidine-3-carbonitrile]
20 to 50 | < 100 | < 100 | < 5 | < 100 | 100 to 1000 | < 100 | C[C@@H]1CN(c2nc(-c3cnn(C4CCOCC4)c3)cn3nccc23)C(=O)[C@]1(C#N)C1CC1 [Example 203, (3R,4S)-3-cyclopropyl-4-methyl-2-oxo-1-(6-(1-(tetrahydro-2H-pyran-4-yl)-1H-pyrazol-4-yl)pyrazolo[1,5-a]pyrazin-4-yl)pyrrolidine-3-carbonitrile]
20 to 50 | 100 to 1000 | 100 to 1000 | < 5 | 100 to 1000 | 1000 to 5000 | 5000 to 10000 | C[C@@H]1CN(c2ccnn3cc(-c4cnn(C)c4)cc23)C(=O)[C@]1(C#N)C1CC1 [Example 34, (3R,4S)-3-cyclopropyl-4-methyl-1-(6-(1-methyl-1H-pyrazol-4-yl)pyrrolo[1,2-b]pyridazin-4-yl)-2-oxopyrrolidine-3-carbonitrile]
> 100 | 1000 to 5000 | 100 to 1000 | 5 to 20 | 100 to 1000 | 5000 to 10000 | > 10000 | C[C@@H]1CN(c2ccnn3cc(-c4cccc5c4cnn5C)cc23)C(=O)[C@]1(C#N)C1CC1 [Example 54, (3R,4S)-3-cyclopropyl-4-methyl-1-(6-(1-methyl-1H-indazol-4-yl)pyrrolo[1,2-b]pyridazin-4-yl)-2-oxopyrrolidine-3-carbonitrile]
